Results on ten compounds are retold here after ChEMBL document CHEMBL1201862, “PubChem BioAssay data set” (2004).

Among the test systems are Malme-3M; HT-29; HCT-15; 786-0; SF-539; OVCAR-8; SK-MEL-2; OVCAR-3; A549; RXF 393; K562; RPMI-8226; HOP-92; SF-295; MDA-MB-231; PC-3; MDA-N; DU-145; MCF7.
Common to all, as to assay: DTP human tumour cell line panel, 48 h

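48-hour exposure; five concentrations; linearly interpolated endpoints. GI50 = concentration required for 50% inhibition of growth.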 Calls of active or inactive are those of the source. Cut-off read from the data, not from the text of the source: active = GI50 up to about 1.1 µM and inactive = higher.

Take `CCOC(=O)N1CCN(C=S)CC1`: the GI50 is > 100 µM (inactive) in the assay on Malme-3M; > 100 µM (inactive) with HT-29; over 100 µM in the assay with HCT-15; > 100 µM (inactive) in the assay on 786-0; > 100 µM (inactive) in the assay on SF-539; > 100 µM (inactive) in the assay on OVCAR-8. The GI50 with SK-MEL-2, in the assay with OVCAR-3, in the assay with A549, in the assay with RXF 393 and in the assay on K562 was > 100 µM (inactive) throughout.

Regarding `O=C(/C=C/c1ccccc1Cl)c1ccc(Cl)cc1Cl`, the GI50 with Malme-3M is 18.9 µM (inactive); in the assay with HT-29, 14.3 µM (inactive); in the assay with RPMI-8226 it was 9.55 µM (inactive); with HCT-15 it was 11.7 µM; in the assay with HOP-92 it was 21 µM (inactive); with 786-0, 16.6 µM (inactive). The GI50 in the assay on SF-295 is 19.3 µM (inactive); in the assay on SF-539, 23 µM (inactive); in the assay with OVCAR-8 it was 15.7 µM (inactive); in the assay on OVCAR-3, 17.7 µM (inactive); in the assay with A549 it was 21.3 µM (inactive); in the assay with K562, 3.02 µM (inactive).

Consider `COc1ccc(C2[C@H]3C(=O)N(c4ccc(Cc5ccc(N6C(=O)[C@@H]7ON(c8ccccc8)C(c8ccc(OC)cc8)[C@@H]7C6=O)cc5)cc4)C(=O)[C@H]3ON2c2ccccc2)cc1` (stereo partly drawn), for which the GI50 with Malme-3M is 87.5 µM (inactive); in the assay with HT-29 it was > 100 µM (inactive); with RPMI-8226, > 100 µM (inactive); in the assay on HCT-15, over 100 µM; in the assay with HOP-92, 49.2 µM (inactive); in the assay on 786-0, > 100 µM (inactive). Further, the GI50 with SF-295, with SF-539, in the assay on OVCAR-8, in the assay with SK-MEL-2, in the assay with OVCAR-3 and with A549 was > 100 µM (inactive) throughout. For the same compound, the GI50 in the assay on RXF 393 and in the assay with K562 was > 100 µM (inactive) throughout.

Consider `COC(=O)C(=O)C(C(=O)C(=O)Nc1ccc(C)cc1)c1nc2ccc(C(=O)c3ccccc3)cc2nc1O` (stereo not drawn), for which the GI50 was > 100 µM (inactive) in the assay on MDA-MB-231; > 100 µM (inactive) in the assay with Malme-3M; 7.83 µM (inactive) with HT-29; > 100 µM (inactive) in the assay with RPMI-8226; 52.2 µM in the assay with HCT-15; > 100 µM (inactive) in the assay with HOP-92. In addition, the GI50 in the assay on 786-0 was > 100 µM (inactive); with PC-3, 43.7 µM (inactive); in the assay on SF-295, 65 µM (inactive); in the assay with SF-539 it was > 100 µM (inactive); with OVCAR-8, 42.2 µM (inactive); with SK-MEL-2 it was > 100 µM (inactive). For the same compound, the GI50 in the assay with MDA-N was 43.4 µM (inactive); in the assay with OVCAR-3, > 100 µM (inactive); in the assay with A549, > 100 µM (inactive); with RXF 393, 55 µM (inactive); in the assay on K562, 42.2 µM (inactive).

Consider `CN(C)C(=O)OC(Cn1cncn1)(Cn1cncn1)c1ccc(Cl)cc1Cl`, for which the GI50 in the assay with MDA-MB-231 is > 100 µM (inactive); with HT-29, > 100 µM (inactive); in the assay with DU-145, > 100 µM (inactive); in the assay with RPMI-8226, > 100 µM (inactive); in the assay with HCT-15, over 100 µM; with HOP-92 it was > 100 µM (inactive). Moreover, the GI50 in the assay with 786-0 was > 100 µM (inactive); with PC-3, > 100 µM (inactive); in the assay on SF-295, > 100 µM (inactive); with SF-539, > 100 µM (inactive); in the assay with OVCAR-8, > 100 µM (inactive); with SK-MEL-2, 71.8 µM (inactive). The GI50 with OVCAR-3, in the assay with A549, in the assay with RXF 393, with MCF7 and in the assay on K562 was > 100 µM (inactive) throughout.

Regarding `O=Nn1c2ccccc2c2ccccc21`, the GI50 in the assay on MDA-MB-231 is 65.2 µM (inactive); in the assay with Malme-3M, 93.3 µM (inactive); with HT-29, 50.2 µM (inactive); in the assay on DU-145, > 100 µM (inactive); with RPMI-8226, 70.1 µM (inactive); with HCT-15 it was 35.1 µM. Also, the GI50 is 66.2 µM (inactive) in the assay on HOP-92; 95.1 µM (inactive) in the assay with 786-0; 42.8 µM (inactive) in the assay on PC-3; 42.9 µM (inactive) in the assay with SF-295; > 100 µM (inactive) in the assay on SF-539; > 100 µM (inactive) with OVCAR-8. Besides, the GI50 in the assay with SK-MEL-2 was 61.7 µM (inactive); in the assay with OVCAR-3, 71.9 µM (inactive); with A549, 17.5 µM (inactive); with RXF 393 it was 37.7 µM (inactive); in the assay on MCF7 it was 45 µM (inactive); with K562, 58.9 µM (inactive).

For `Cc1nc(-c2nc(C)c(C(=O)/C=C/c3ccc([N+](=O)[O-])cc3)s2)sc1C(=O)/C=C/c1ccc([N+](=O)[O-])cc1`, the GI50 in the assay on Malme-3M was > 100 µM (inactive); with HT-29 it was > 100 µM (inactive); in the assay with RPMI-8226, > 100 µM (inactive); in the assay on HCT-15, over 100 µM; with HOP-92, > 100 µM (inactive); in the assay on 786-0, > 100 µM (inactive). The GI50 with SF-295, in the assay on SF-539, in the assay on OVCAR-8, in the assay with SK-MEL-2, in the assay with OVCAR-3 and in the assay with A549 was > 100 µM (inactive) in each case. In addition, the GI50 in the assay on RXF 393 and in the assay on K562 was > 100 µM (inactive) in each case.

For the compound `C(=N\c1ccc(-c2nc3ccccc3[nH]2)cc1)/c1ccc[nH]1`, the GI50 in the assay on Malme-3M is > 100 µM (inactive); in the assay with HT-29, 78.5 µM (inactive); in the assay with DU-145, > 100 µM (inactive); with RPMI-8226 it was 37.8 µM (inactive); with HCT-15 it was 76.6 µM; in the assay on HOP-92, > 100 µM (inactive). Further, the GI50 was 83.4 µM (inactive) with 786-0; 70.8 µM (inactive) with PC-3; > 100 µM (inactive) in the assay with SF-539; 83.9 µM (inactive) in the assay with OVCAR-8; > 100 µM (inactive) in the assay with SK-MEL-2; 34.2 µM (inactive) in the assay with MDA-N. The GI50 is 69 µM (inactive) in the assay on OVCAR-3; > 100 µM (inactive) with A549; 76.2 µM (inactive) in the assay on RXF 393; 25.7 µM (inactive) with MCF7; 41.3 µM (inactive) with K562.

For `O=C(Cc1nc2ccccc2c(=O)n1-c1c(Cl)cccc1Cl)c1ccncc1`, the GI50 with Malme-3M was 24.7 µM (inactive); in the assay on HT-29, 19.6 µM (inactive); in the assay with HCT-15, 24.7 µM; in the assay on HOP-92, 13.8 µM (inactive); in the assay with 786-0 it was 24.6 µM (inactive); with SF-295, 18 µM (inactive). Moreover, the GI50 in the assay on SF-539 is 18.4 µM (inactive); in the assay on OVCAR-8 it was 29.7 µM (inactive); in the assay on SK-MEL-2, 21.1 µM (inactive); in the assay with OVCAR-3, 21.3 µM (inactive); in the assay on A549 it was 21.4 µM (inactive); in the assay on RXF 393, 18.5 µM (inactive). For the same compound, the GI50 with K562 is 26.7 µM (inactive).

For `COc1ccc(C23OCC(Cc4cc(OC)c(OC)cc42)C3CO)cc1OC` (stereo not drawn), the GI50 in the assay on MDA-MB-231 was > 100 µM (inactive); in the assay on Malme-3M, > 100 µM (inactive); in the assay with DU-145 it was > 100 µM (inactive); with RPMI-8226 it was > 100 µM (inactive); in the assay on HCT-15, over 100 µM; with 786-0 it was > 100 µM (inactive). The GI50 in the assay with PC-3, with SF-295, with SF-539, in the assay on SK-MEL-2, with OVCAR-3 and in the assay on A549 was > 100 µM (inactive) throughout. In addition, the GI50 in the assay on RXF 393, in the assay on MCF7 and in the assay on K562 was > 100 µM (inactive) in each case.
